Reference: patent publication US20110028719A1, “SCREENING METHODS FOR AMYLOID BETA MODULATORS” (priority 2006, published 2011)
Counter-ions that a name gives are not always drawn.

Biological target: immobilized Aβ fibrils (Homo sapiens, UniProt P05067)
Assay: FAC-MS assay of free Aβ monomer (indicator) binding to immobilized Aβ fibrils in the presence of test compounds
Settings: for Aβ Shift: FAC-MS screen, shift of free Aβ monomer breakthrough on immobilized Aβ fibrils in presence of compound, scale not given; for % of Shift: FAC-MS % shift of breakthrough time of free Aβ1-42 monomer (1 μM) on immobilized Aβ fibrils, compounds 1-10 μM in 20 mM NH4OAc, 1% DMSO, void marker M3

Sequence of immobilized Aβ fibrils (P05067 672-713 limits assumed): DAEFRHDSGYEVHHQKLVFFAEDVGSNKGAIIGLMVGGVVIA

Molecule	% of Shift [%]	further results
CC12CC3CC(C)(C1)CC(C(=O)NC(C)(C)CO)(C3)C2		Aβ Shift: 1
CC12CC3CC(C)(C1)CC(C(=O)Nc1nccs1)(C3)C2		Aβ Shift: 1
C=CCNC(=O)C12CC3(C)CC(C)(CC(C)(C3)C1)C2		Aβ Shift: 1
CC12CC3(C)CC(C)(C1)CC(C(=O)NC(C)(C)CO)(C2)C3		Aβ Shift: 1
1,2,5,6-bis-O-(1-Methylethyldene)-3-methyl-1D-chiro-inositol [Compound 53234-7, reference compound]	4	
COC1C(O)C2OC3(CCCCC3)OC2C2OC3(CCCCC3)OC12 (racemic) [Compound 53226-6, 1,2,3,4-DL-O-cyclohexyldene-5-O-methyl-L-chiro-inositol, reference compound]	2	
O[C@H]1[C@H](O)[C@@H](O)[C@H](O)[C@@H](O)[C@@H]1O [AZD-103, scyllo-inositol, reference compound]	84	effect of pretreatment of immobilized Aβ aggregates (pretreatment of column with 1 to 10 μM, FIG. 5): prevents binding and/or breaks down of Aβ fibrils
OC1C(O)C(O)C(O)C(O)C1O (stereo not drawn) [Chiro, chiro-inositol, reference compound]	2	
[H]/N=C(/N)N[C@H]1[C@H](O)[C@@H](O)[C@H](O[C@@H]2O[C@@H](C)[C@](O)(C=O)[C@H]2O[C@@H]2O[C@@H](CO)[C@H](O)[C@@H](O)[C@@H]2NC)[C@@H](N/C(N)=N\[H])[C@@H]1O [Compound 56501, Streptomycin sulfate, reference compound]	1	
O=C(O)[C@]1(O)C[C@@H](O)[C@@H](O)[C@H](O)C1 [Compound 138622, 1R,3R,4R,5R-Quinic acid, reference compound]	3	
CC(C)C(=O)OC1C(O)C(OC(=O)C(C)C)C(OC(=O)C(C)C)C(OC(=O)C(C)C)C1OC(=O)C(C)C (stereo not drawn) [Compound 37387001, 2-hydroxy-3,4,5,6-tetrakis(isobutyryloxy)cyclohexyl 2-methylpropanoate]	4	
CC(C)(C)C(=O)OC1C(O)C(OC(=O)C(C)(C)C)C(OC(=O)C(C)(C)C)C(OC(=O)C(C)(C)C)C1OC(=O)C(C)(C)C (stereo not drawn) [Compound 37387002, 2,3,4,5-tetrakis[(2,2-dimethylpropanoyl)oxy]-6-hydroxycyclohexyl pivalate]	5	
CC(=O)OC1C(OC(=O)C(C)(C)C)C(OC(=O)C(C)(C)C)C(OC(C)=O)C(OC(=O)C(C)(C)C)C1OC(=O)C(C)(C)C (stereo not drawn) [Compound 37387004, 2,5-bis(acetoxy)-3,4,6-tris[(2,2-dimethylpropanoyl)oxy]cyclohexyl pivalate]	4	
CCC(=O)OC1C(OC(=O)CC)C(OC(=O)CC)C(OC(=O)CC)C(OC(=O)CC)C1OC(=O)CC (stereo not drawn) [Compound 37387006, 2,3,4,5,6-pentakis(propionyloxy)cyclohexyl propionate]	4	
CC(C)C(=O)OC1C(OC(=O)C(C)C)C(OC(=O)C(C)C)C(OC(=O)C(C)C)C(OC(=O)C(C)C)C1OC(=O)C(C)C (stereo not drawn) [Compound 37387007, 2,3,4,5,6-pentakis(isobutyryloxy)cyclohexyl 2-methylproanoate]	5	
CC(C)(C)C(=O)OC1C(OC(=O)C(C)(C)C)C(OC(=O)C(C)(C)C)C(OC(=O)C(C)(C)C)C(OC(=O)C(C)(C)C)C1OC(=O)C(C)(C)C (stereo not drawn) [Compound 37387008, 2,3,4,5,6-pentakis[(2,2-dimethylpropanoyl)oxy]cyclohexyl pivalate]	4	
CC(C)CC(=O)OC1C(O)C(OC(=O)CC(C)C)C(OC(=O)CC(C)C)C(OC(=O)CC(C)C)C1OC(=O)CC(C)C (stereo not drawn) [Compound 37387009, 2-hydroxy-3-4,5,6-tetrakis[(3-methylbutanoyl)oxo]cyclohexyl 3-methylbutanoate]	2	
O=C(OC1C(O)C(OC(=O)c2ccccc2)C(OC(=O)c2ccccc2)C(OC(=O)c2ccccc2)C1OC(=O)c1ccccc1)c1ccccc1 (stereo not drawn) [Compound 37387010, 2,3,5,6-tatrakis(benzoyloxy)-4-hydroxycyclohexyl benzoate]	2	
CC(=O)OC1C(OC(=O)CC(C)C)C(OC(=O)CC(C)C)C(OC(=O)CC(C)C)C(OC(=O)CC(C)C)C1OC(=O)CC(C)C (stereo not drawn) [Compound 37387013, 2-(acetyloxy)-3,4,5,6-tetrakis[(3-methylbutanoyl)oxy]cyclohexanyl 3-methylbutanoate]	3	
OC1[C@@H](O)[C@H](O)C(O[C@H]2OC[C@H](O)[C@H](O)[C@H]2O)[C@H](O)[C@H]1O (stereo partly drawn) [Compound A-9826, 2-O-b-L-Arabinopyranosyl myo-inositol, reference compound]	3	
O[C@H]1[C@H](O)[C@@H](O)[C@@H]2O[C@@H]2[C@@H]1O [Compound C5424, Conduritol B epoxide, reference compound]	1	
O=C(/C=C/c1ccc(O)c(O)c1)O[C@@H]1C[C@](O)(C(=O)O)C[C@@H](O)[C@H]1O [Compound C-3878, Chlorogenic acid, reference compound]	2	
O=P(O)(O)O[C@@H]1C(O)[C@@H](OP(=O)(O)O)[C@@H](O)C(O)[C@H]1O (stereo partly drawn) [Compound I-3139, D-Myo-inositol-2,4-bis-phosphate, reference compound]	12	
O=S(=O)([O-])OC1C(OS(=O)(=O)[O-])C(OS(=O)(=O)[O-])C(OS(=O)(=O)[O-])C(OS(=O)(=O)[O-])C1OS(=O)(=O)[O-].[K+].[K+].[K+].[K+].[K+].[K+] (stereo not drawn) [Compound I-6005, myo-inositol hexasulfate hexapotasium, reference compound]	4	
C[C@H]1O[C@H](OC2[C@@H](O)[C@@H](O)C(O)[C@H](O)[C@H]2O)[C@@H](N)C[C@@H]1N=C(N)C(=O)O.Cl (stereo partly drawn) [Compound K413, Kasugamycin hydrochloride, reference compound]	2	
O=P(O)(O)O[C@H]1[C@H](OP(=O)(O)O)[C@@H](OP(=O)(O)O)[C@H](OP(=O)(O)O)[C@@H](OP(=O)(O)O)[C@H]1OP(=O)(O)O [Compound P-3168, Phytic acid, reference compound]	2	
CO[C@H]1[C@H](O)[C@@H](O)[C@@H](O)[C@H](O)[C@@H]1O [D-Pinitol, D-pinitol, reference compound]	3	
O[C@H]1[C@H](O)[C@@H](O)[C@H](O)[C@@H](O)[C@H]1O [Myo, myo-inositol, reference compound]	34	
O[C@H]1[C@H](O)[C@@H](O)[C@H](O)[C@@H](O)[C@@H]1O [scyllo-cyclohexanehexyl, scyllo-inositol, reference compound]		effect of increasing concentrations on free Aβ monomer binding time (increasing concentrations, breakthrough curves shifted to the left (greater % shift), FIG. 3): dose dependent reduction in the free Aβ monomer binding time
